US10815222B2, “Compounds for use in the treatment of kinetoplastid infection” (C.N.C.C.S. S.c.a.r.l. COLLEZIONE NAZIONALE DEI COMPOSTI …, priority 2016, dated 2020)

Test system: Bloodstream form of Trypanosoma brucei, strain Lister 427
Assay: Trypanosoma brucei growth inhibition assay (CellTiter-Glo, 24 h)
Format: cell-based
Settings: Trypanosoma brucei; T. Brucei Growth Inibition Assay, class symbols; read-out: T. Brucei GI EC50
Summary of the method: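 Growth read-out was CellTiter-Glo luminescence after 24 h at 37 °C incubation of 1500 bloodstream-form Lister 427 trypanosomes per well with compound, in supplemented IMDM containing 10% FBS and at most 0.25% DMSO.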

| Structure (SMILES) | EC50 [nM] |
| --- | --- |
| CCC(=O)CCCN1CCN(C(=O)c2cncs2)C(c2ncc(-c3ccc4ccccc4c3)[nH]2)C1 (centres unmarked) | 1010 to 5000 |
| COc1ccc2nc(C)n(CC(=O)N3CCN(CC4CCOC4)C[C@H]3c3ncc(/C=C/c4ccccc4)[nH]3)c2c1 (stereo partly drawn) [2-(6-methoxy-2-methyl-1H-benzo[d]imidazol-1-yl)-1-((2S)-2-(5-((E)-styryl)-1H-imidazol-2-yl)-4-((tetrahydrofuran-3-yl)methyl)piperazin-1-yl)ethan-1-one] | 1010 to 5000 |
| COc1ccc2nc(C)n(CC(=O)N3CCN(CC4CCOC4)C[C@H]3c3ncc(-c4cc5ccccc5[nH]4)[nH]3)c2c1 (some centres unmarked) | 1010 to 5000 |
| COc1ccc2c(c1)C(CC(=O)N1CCN(CC3CC3)CC1c1ncc(-c3ccc4ccccc4c3)[nH]1)C(=O)N2 (centres unmarked) | 1010 to 5000 |
| COc1nc2ccccc2cc1-c1cnc(C2CN(CC3CCOC3)CCN2C(=O)Cn2c(C)nc3cc(F)c(F)cc32)[nH]1 (centres unmarked) | 100 to 500 |
| COc1ccc2[nH]c(C)c(CC(=O)N3CCN(C)CC3c3ncc(-c4ccc5ccccc5c4)n3C)c2c1 (centres unmarked) | 1010 to 5000 |
| COc1nc2ccccc2cc1-c1cnc(C2CN(C(=O)C3CCOC3)CCN2C(=O)Cc2c(C)[nH]c3ccc(F)cc23)[nH]1 (centres unmarked) [2-(5-fluoro-2-methyl-1H-indol-3-yl)-1-(2-(5-(2-methoxyquinolin-3-yl)-1H-imidazol-2-yl)-4-(tetrahydrofuran-3-carbonyl)piperazin-1-yl) ethan-1-one] | 1010 to 5000 |
| COc1ccc2c(CC(=O)N3CCN(CC4CCOC4)CC3c3ncc(-c4cc5ccccc5nc4OC)[nH]3)coc2c1 (centres unmarked) | 510 to 1000 |
| COc1ccc2nc(C(F)(F)F)n(CC(=O)N3CCC(O)C[C@H]3c3ncc(-c4cc5ccccc5nc4OC)[nH]3)c2c1 (stereo partly drawn) [1-((2S)-4-hydroxy-2-(5-(2-methoxyquinolin-3-yl)-1H-imidazol-2-yl)piperidin-1-yl)-2-(6-methoxy-2-(trifluoromethyl)-1H-benzo[d]imidazol-1-yl)ethan-1-one] | < 100 |
| COc1ccc2nc(C(F)(F)F)n(CC(=O)N3CCN(Cc4nccs4)CCC3c3ncc(-c4cc5ccccc5nc4OC)[nH]3)c2c1 (centres unmarked) [2-(6-methoxy-2-(trifluoromethyl)-1H-benzo[d]imidazol-1-yl)-1-(7-(5-(2-methoxyquinolin-3-yl)-1H-imidazol-2-yl)-4-(thiazol-2-ylmethyl)-1,4-diazepan-1-yl)ethan-1-one] | < 100 |
| COc1ccc2nc(C)n(CC(=O)N3CCN(Cc4cnccn4)CCC3c3ncc(-c4cc5ccccc5nc4OC)[nH]3)c2c1 (centres unmarked) | 100 to 500 |
| CN1CCN(C(=O)Cc2noc3ccccc23)C(c2ncc(-c3ccc4ccccc4c3)[nH]2)C1 (centres unmarked) | 1010 to 5000 |
| COc1nc2ccccc2cc1-c1cnc([C@@H]2CN(Cc3nccs3)CCN2C(=O)Cn2c(C(F)(F)F)nc3ccccc32)[nH]1 [(S)-1-(2-(5-(2-methoxyquinolin-3-yl)-1H-imidazol-2-yl)-4-(thiazol-2-ylmethyl)piperazin-1-yl)-2-(2-(trifluoromethyl)-1H-benzo[d]imidazol-1-yl)ethan-1-one] | < 100 |
| COc1ccc2nc(C(F)(F)F)n(CC(=O)N3CCN(CCn4cccn4)C[C@H]3c3ncc(-c4cc5ccccc5nc4OC)[nH]3)c2c1 [(S)-1-(4-(2-(1H-pyrazol-1-yl)ethyl)-2-(5-(2-methoxyquinolin-3-yl)-1H-imidazol-2-yl)piperazin-1-yl)-2-(6-methoxy-2-(trifluoromethyl)-1H-benzo[d]imidazol-1-yl)ethan-1-one] | < 100 |
| COc1ccc2nc(C(F)(F)F)n(CC(=O)N3CC[C@@H](NCc4nccs4)C[C@H]3c3ncc(-c4cc5ccccc5nc4OC)[nH]3)c2c1 | 100 to 500 |
| COc1nc2ccccc2cc1-c1cnc([C@@H]2CN(Cc3ccccn3)CCN2C(=O)Cn2c(C(F)(F)F)nc3ccccc32)[nH]1 [(S)-1-(2-(5-(2-methoxyquinolin-3-yl)-1H-imidazol-2-yl)-4-(pyridin-2-ylmethyl)piperazin-1-yl)-2-(2-(trifluoromethyl)-1H-benzo[d]imidazol-1-yl)ethan-1-one] | < 100 |

| Structure (SMILES) | EC50 [nM] |
| --- | --- |
| COc1ccc2cc(C)n(CC(=O)N3CCN(CC4CCOC4)C[C@H]3c3ncc(-c4cc5ccccc5nc4OC)[nH]3)c2c1 (stereo partly drawn) [2-(6-methoxy-2-methyl-1H-indol-1-yl)-1-((2S)-2-(5-(2-methoxyquinolin-3-yl)-1H-imidazol-2-yl)-4-((tetrahydrofuran-3-yl)methyl)piperazin-1-yl)ethan-1-one] | < 100 |
| COc1ccc2nc(C(F)(F)F)n(CC(=O)N3CCN(CCc4ccccn4)C[C@H]3c3ncc(-c4cc5ccccc5nc4OC)[nH]3)c2c1 [(S)-2-(6-methoxy-2-(trifluoromethyl)-1H-benzo[d]imidazol-1-yl)-1-(2-(5-(2-methoxyquinolin-3-yl)-1H-imidazol-2-yl)-4-(2-(pyridin-2-yl)ethyl)piperazin-1-yl)ethan-1-one] | < 100 |
| COc1ccc2nc(C(F)(F)F)n(CC(=O)N3CCN(CC4CCN(C(C)=O)C4)C[C@H]3c3ncc(-c4cc5ccccc5nc4OC)[nH]3)c2c1 (stereo partly drawn) [1-((2S)-4-((1-acetylpyrrolidin-3-yl)methyl)-2-(5-(2-methoxyquinolin-3-yl)-1H-imidazol-2-yl)piperazin-1-yl)-2-(6-methoxy-2-(trifluoromethyl)-1H-benzo[d]imidazol-1-yl)ethan-1-one] | < 100 |
| COc1ccc2nc(C(F)(F)F)n(CC(=O)N3CCN(Cc4ccnnc4)C[C@H]3c3ncc(-c4cc5ccccc5nc4OC)[nH]3)c2c1 [(S)-2-(6-methoxy-2-(trifluoromethyl)-1H-benzo[d]imidazol-1-yl)-1-(2-(5-(2-methoxyquinolin-3-yl)-1H-imidazol-2-yl)-4-(pyridazin-4-ylmethyl)piperazin-1-yl)ethan-1-one] | < 100 |
| COc1nc2ccccc2cc1-c1cnc([C@@H]2CN(CC3CCOC3)CCN2C(=O)Cn2c(C(F)(F)F)nc3ncccc32)[nH]1 (some centres unmarked) | 1010 to 5000 |
| Cc1csc(CC(=O)N2CCN(CC3CC3)CC2c2ncc(-c3ccc4ccccc4c3)[nH]2)n1 (centres unmarked) | 1010 to 5000 |
| COc1ccc2nc(C(F)(F)F)n(CC(=O)N3CCN(Cc4cn(C)nn4)CCC3c3ncc(-c4cc5ccccc5nc4OC)[nH]3)c2c1 (centres unmarked) | 100 to 500 |
| O=C(Cc1c[nH]c2ccc(O)cc12)N1CCN(CC2CCOC2)CC1c1ncc(-c2ccc3ccccc3c2)[nH]1 (centres unmarked) | 510 to 1000 |
| O=C(Cc1n[nH]c2ccccc12)N1CCN(CC2CCOC2)CC1c1ncc(-c2ccc3ccccc3c2)[nH]1 (centres unmarked) | 1010 to 5000 |
| COc1nc2ccccc2cc1-c1cnc(C2CN(C)CCN2C(=O)Cc2c[nH]c3ncccc23)[nH]1 (centres unmarked) | 1010 to 5000 |
| CCC(=O)CCCN1CCN(C(=O)Cc2c[nH]c3ccccc23)[C@H](c2ncc(-c3ccc4ccccc4c3)[nH]2)C1 | 100 to 500 |
| COc1nc2ccccc2cc1-c1cnc([C@@H]2CN(CC3CCOC3)CCN2C(=O)Cn2c(C)nc3cc(C(F)(F)F)ccc32)[nH]1 (some centres unmarked) | 100 to 500 |
| COc1ccc2nc(C(F)(F)F)n(CC(=O)N3CCOCC3c3ncc(-c4cc5ccccc5nc4OC)[nH]3)c2c1 (centres unmarked) | 100 to 500 |
| O=C(Cc1c[nH]c2ccc(O)cc12)N1CCN(CC2CC2)CC1c1ncc(-c2ccc3ccccc3c2)[nH]1 (centres unmarked) | 1010 to 5000 |
| COc1ccc2nc(C(F)(F)F)n(CC(=O)N3CCS(=O)(=O)C[C@H]3c3ncc(-c4cc5ccccc5nc4OC)[nH]3)c2c1 [(R)-2-(6-methoxy-2-(trifluoromethyl)-1H-benzo[d]imidazol-1-yl)-1-(3-(5-(2-methoxyquinolin-3-yl)-1H-imidazol-2-yl)-1,1-dioxidothiomorpholino)ethan-1-one] | 100 to 500 |
| COc1ccc2[nH]c(C)c(CC(=O)N3CCN(C)CC3c3ncc(-c4ccccc4)[nH]3)c2c1 (centres unmarked) | 1010 to 5000 |
